For one experiment, the system named is HT1080ConALuC tumors. Nature of the experiment: p53-dependent luciferase reporter in xenograft tumors. Type of experiment: in vivo. Particulars: intraperitoneal; 24 hours; nude mice. As to the method:
HT1080ConALuC cells were inoculated into two flanks of nude mice. When tumors reach 5 mm in diameter, mice were injected intraperitoneally with indicated concentrations of the drugs (mg/kg, 3 mice per group). After 24 hours mice were sacrificed, tumors were isolated, lysed in Reporter Lysis Reagent (Promega) and luciferase activity was measured in […] of tumor proteins. Bars represent fold of induction of luciferase activity in tumors, treated with drugs over luciferase activity in tumors treated with vehicle. FIG. 5B: HT1080sip53 or HT1080siGFP cells were inoculated in the left and right flank of nude mice respectively.
NIH Swiss athymic nude, male mice, 5-6 weeks old were purchased from Harlan. 5×10^6 of tumor cells were inoculated into the flank of mice in 100 μL of PBS. […] As vehicle, 50% DMSO solution in PBS was used. Tumor size was measured in three dimensions every other day.
The in vivo anti-tumor effects of aminoacridines were tested in a xenograft tumor model using HT1080 cells differing in their p53 status and carrying p53 luciferase reporters grown subcutaneously in nude mice.

The test system of a further experiment is topoisomerase II. Nature of the experiment: DNA—Topoisomerase II activity assay. Type of experiment: cell-based. Particulars: in vitro; HT1080 cells, 1 h. As to the method: Western blot analysis of total protein lysates was performed using antibodies against p53 (DO1) and against specific sites of phosphorylation in p53. […] HCT116 cells were treated for 30 minutes with 1 μM PS-341. PS-341 was washed off after 30 minutes and cells were re-incubated in drug free medium prior to analysis at 3 hours or 16 hours post-treatment. […] Proteasome activity was determined by measuring the absorbance of free AMC generated by cleavage of an AMC-fluorogenic peptide. The proteasome activity of untreated cells was set at 100%. […] Cell lysates were isolated at the indicated hours after treatment and used for western blotting. Blots were probed with antibodies specific for both phosphorylated and unphosphorylated forms of IκB-α. β-actin specific antibodies were used as a loading control.
HT1080 cells were labeled for 24 hours with 0.02 to 0.04 mCi/mL of [^14C] thymidine, specific activity 53 mCi/mmol (Amersham). […] The induction of topo II-mediated DNA scission was determined by measuring precipitation of the protein DNA complex using a modification of the SDS-KCl technique.

For experiment [1], the system named is HT1080-sip53 and HT1080-siGFP cells. Kind of experiment: Cell survival assay in isogenic cell pairs with anti-p53 or control siRNA. Type of experiment: cell-based, human. The note with it: anti-p53 vs control siRNA; maximum difference in HT1080 cells.
The next experiment relates to RCC cell lines. Nature of the experiment: Restoration of p53-mediated transactivation in RCC cell lines. The class given is cell-based. The note with it: data not shown.

SMILES strings stand for the structures.

In the case of `Nc1c2ccccc2nc2ccccc12` [9AA, 9-aminoacridine], in the experiment with HT1080ConALuC tumors, the “activation of p53 in tumors” value is recorded as “capable of activating p53 in tumors”. Besides, the “effect on topoisomerase II activity” value in the experiment with topoisomerase II is “no effect”. Also, the “toxicity in cells differing in p53 status” value in experiment [1] is “less toxic to the cells with reduced p53 expression”. The “RCC cell lines with restored p53-mediated transactivation” value in the experiment with RCC cell lines was 9 out of 10.
